Target: BRAF V600E (Homo sapiens, UniProt P15056, V600E)
Assay: HiBiT cellular BRAF^V600E degradation assay
Format: cell-based
Conditions: A375.10 cells, 24 h; for DC50: concentration at which 50% of total cellular BRAF^V600E is degraded; for Emax: residual protein remaining in the cell, read-out: HiBit 24 h Emax

Sequence of BRAF V600E (P15056 whole entry V600E): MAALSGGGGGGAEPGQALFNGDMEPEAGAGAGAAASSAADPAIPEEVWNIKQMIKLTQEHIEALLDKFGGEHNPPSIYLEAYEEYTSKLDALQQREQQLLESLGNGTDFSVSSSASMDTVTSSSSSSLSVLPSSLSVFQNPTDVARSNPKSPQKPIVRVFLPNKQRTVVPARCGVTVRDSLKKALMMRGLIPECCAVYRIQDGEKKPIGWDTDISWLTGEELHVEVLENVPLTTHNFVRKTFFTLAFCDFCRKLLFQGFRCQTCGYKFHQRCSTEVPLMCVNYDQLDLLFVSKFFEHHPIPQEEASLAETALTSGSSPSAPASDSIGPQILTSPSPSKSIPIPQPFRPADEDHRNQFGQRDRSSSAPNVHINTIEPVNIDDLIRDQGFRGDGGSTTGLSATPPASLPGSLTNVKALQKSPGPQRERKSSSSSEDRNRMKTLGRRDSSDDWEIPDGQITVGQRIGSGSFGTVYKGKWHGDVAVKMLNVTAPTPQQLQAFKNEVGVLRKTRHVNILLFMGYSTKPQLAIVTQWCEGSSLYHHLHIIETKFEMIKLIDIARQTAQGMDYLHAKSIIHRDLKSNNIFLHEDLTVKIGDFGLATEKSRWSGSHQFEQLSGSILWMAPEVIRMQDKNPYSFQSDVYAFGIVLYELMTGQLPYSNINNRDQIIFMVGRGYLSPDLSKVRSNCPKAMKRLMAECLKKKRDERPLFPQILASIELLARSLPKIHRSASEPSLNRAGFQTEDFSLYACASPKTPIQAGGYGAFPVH

SMILES | DC50 | Emax
CN(CC(F)F)S(=O)(=O)Nc1ccc(F)c(Oc2ccc3ncn(-c4cnc(N5CCN(C(=O)CN6CCC(c7ccc(N[C@H]8CCC(=O)NC8=O)cc7F)CC6)CC5)nc4)c(=O)c3c2)c1C#N [Example 122, 6-[2-cyano-3-[[2,2-difluoroethyl(methyl)sulfamoyl]amino]-6-fluorophenoxy]-3-[2-[4-[2-[4-[4-[[(3S)-2,6-dioxopiperidin-3-yl]amino]-2-fluorophenyl]piperidin-1-yl]acetyl]piperazin-1-yl]pyrimidin-5-yl]-4-oxoquinazoline] | 0.0271 µM | 8.26%
N#Cc1c(NS(=O)(=O)N2CCC(F)(F)C2)ccc(F)c1Oc1ccc2ncn(-c3cnc(N4CCN(C(=O)CN5CCC(c6ccc(N[C@@H]7CCC(=O)NC7=O)cc6F)CC5)CC4)nc3)c(=O)c2c1 [Example 123, N-[2-cyano-3-[3-[2-[4-[2-[4-[4-[[(3R)-2,6-dioxopiperidin-3-yl]amino]-2-fluorophenyl]piperidin-1-yl]acetyl]piperazin-1-yl]pyrimidin-5-yl]-4-oxoquinazolin-6-yl]oxy-4-fluorophenyl]-3,3-difluoropyrrolidine-1-sulfonamide] | 0.0507 µM | 14%
N#Cc1c(NS(=O)(=O)N2CC[C@@H](F)C2)ccc(F)c1Oc1ccc2ncn(-c3cnc(N4CCN(C(=O)CN5CCC(c6ccc(N[C@@H]7CCC(=O)NC7=O)cc6F)CC5)CC4)nc3)c(=O)c2c1 [Example 124, (3R)—N-[2-cyano-3-[3-[2-[4-[2-[4-[4-[[(3R)-2,6-dioxopiperidin-3-yl]amino]-2-fluorophenyl]piperidin-1-yl]acetyl]piperazin-1-yl]pyrimidin-5-yl]-4-oxoquinazolin-6-yl]oxy-4-fluorophenyl]-3-fluoropyrrolidine-1-sulfonamide] | 0.0157 µM | 12%
N#Cc1c(NS(=O)(=O)N2CCC2)ccc(F)c1Oc1ccc2ncn(-c3cnc(N4CCN(C(=O)CN5CCC(c6ccc(N[C@@H]7CCC(=O)NC7=O)cc6F)CC5)CC4)nc3)c(=O)c2c1 [Example 125, N-[2-cyano-3-[3-[2-[4-[2-[4-[4-[[(3R)-2,6-dioxopiperidin-3-yl]amino]-2-fluorophenyl]piperidin-1-yl]acetyl]piperazin-1-yl]pyrimidin-5-yl]-4-oxoquinazolin-6-yl]oxy-4-fluorophenyl]azetidine-1-sulfonamide] | 0.0157 µM | 12.6%
CN(C1CC1)S(=O)(=O)Nc1ccc(F)c(Oc2ccc3ncn(-c4cnc(N5CCN(C(=O)CN6CCC(c7ccc(N[C@@H]8CCC(=O)NC8=O)cc7F)CC6)CC5)nc4)c(=O)c3c2)c1C#N [Example 126, 6-[2-cyano-3-[[cyclopropyl(methyl)sulfamoyl]amino]-6-fluorophenoxy]-3-[2-[4-[2-[4-[4-[[(3R)-2,6-dioxopiperidin-3-yl]amino]-2-fluorophenyl]piperidin-1-yl]acetyl]piperazin-1-yl]pyrimidin-5-yl]-4-oxoquinazoline] | 0.0222 µM | 13.7%
CN(C1CC1)S(=O)(=O)Nc1ccc(F)c(Oc2ccc3ncn(-c4cnc(N5CCN(C(=O)CN6CCC(c7ccc(N[C@H]8CCC(=O)NC8=O)cc7F)CC6)CC5)nc4)c(=O)c3c2)c1C#N [Example 127, 6-[2-cyano-3-[[cyclopropyl(methyl)sulfamoyl]amino]-6-fluorophenoxy]-3-[2-[4-[2-[4-[4-[[(3S)-2,6-dioxopiperidin-3-yl]amino]-2-fluorophenyl]piperidin-1-yl]acetyl]piperazin-1-yl]pyrimidin-5-yl]-4-oxoquinazoline] | 0.0207 µM | 8.95%
N#Cc1c(NS(=O)(=O)N2C[C@H]3C[C@H]3C2)ccc(F)c1Oc1ccc2ncn(-c3cnc(N4CCN(C(=O)CN5CCC(c6ccc(N[C@H]7CCC(=O)NC7=O)cc6F)CC5)CC4)nc3)c(=O)c2c1 [Example 128, (1S,5R)—N-[2-cyano-3-[3-[2-[4-[2-[4-[4-[[(3S)-2,6-dioxopiperidin-3-yl]amino]-2-fluorophenyl]piperidin-1-yl]acetyl]piperazin-1-yl]pyrimidin-5-yl]-4-oxoquinazolin-6-yl]oxy-4-fluorophenyl]-3-azabicyclo[3.1.0]hexane-3-sulfonamide] | 0.0195 µM | 9.91%
N#Cc1c(NS(=O)(=O)N2C[C@@H](F)[C@H](F)C2)ccc(F)c1Oc1ccc2ncn(-c3cnc(N4CCN(C(=O)CN5CCC(c6ccc(N[C@H]7CCC(=O)NC7=O)cc6F)CC5)CC4)nc3)c(=O)c2c1 [Example 129, (3R,4R)—N-[2-cyano-3-[3-[2-[4-[2-[4-[4-[[(3S)-2,6-dioxopiperidin-3-yl]amino]-2-fluorophenyl]piperidin-1-yl]acetyl]piperazin-1-yl]pyrimidin-5-yl]-4-oxoquinazolin-6-yl]oxy-4-fluorophenyl]-3,4-difluoropyrrolidine-1-sulfonamide] | 0.0296 µM | 10.3%
N#Cc1c(NS(=O)(=O)N2CCC2)ccc(F)c1Oc1ccc2ncn(-c3cnc(N4CCN(C(=O)CN5CCC(c6ccc(N[C@H]7CCC(=O)NC7=O)cc6F)CC5)CC4)nc3)c(=O)c2c1 [Example 130, N-[2-cyano-3-[3-[2-[4-[2-[4-[4-[[(3S)-2,6-dioxopiperidin-3-yl]amino]-2-fluorophenyl]piperidin-1-yl]acetyl]piperazin-1-yl]pyrimidin-5-yl]-4-oxoquinazolin-6-yl]oxy-4-fluorophenyl]azetidine-1-sulfonamide] | 0.0165 µM | 7.25%
N#Cc1c(NS(=O)(=O)C2CCC2)ccc(F)c1Oc1ccc2ncn(-c3cnc(N4CCN(C(=O)CN5CCC(c6ccc(N[C@H]7CCC(=O)NC7=O)cc6F)CC5)CC4)nc3)c(=O)c2c1 [Example 132, N-[2-cyano-3-[3-[2-[4-[2-[4-[4-[[(3S)-2,6-dioxopiperidin-3-yl]amino]-2-fluorophenyl]piperidin-1-yl]acetyl]piperazin-1-yl]pyrimidin-5-yl]-4-oxoquinazolin-6-yl]oxy-4-fluorophenyl]cyclobutanesulfonamide] | 0.0138 µM | 11.1%
N#Cc1c(NS(=O)(=O)C2CCC2)ccc(F)c1Oc1ccc2ncn(-c3cnc(N4CCN(C(=O)CN5CCC(c6ccc(N[C@@H]7CCC(=O)NC7=O)cc6F)CC5)CC4)nc3)c(=O)c2c1 [Example 133, N-[2-cyano-3-[3-[2-[4-[2-[4-[4-[[(3R)-2,6-dioxopiperidin-3-yl]amino]-2-fluorophenyl]piperidin-1-yl]acetyl]piperazin-1-yl]pyrimidin-5-yl]-4-oxoquinazolin-6-yl]oxy-4-fluorophenyl]cyclobutanesulfonamide] | 0.0272 µM | 8.2%
CCN(C)S(=O)(=O)Nc1ccc(F)c(Oc2ccc3ncn(-c4cnc(N5CCN(C(=O)CN6CCC(c7ccc(N[C@@H]8CCC(=O)NC8=O)cc7F)CC6)CC5)nc4)c(=O)c3c2COC)c1C#N [Example 135, 6-[2-cyano-3-[[ethyl(methyl)sulfamoyl]amino]-6-fluorophenoxy]-3-[2-[4-[2-[4-[4-[[(3R)-2,6-dioxopiperidin-3-yl]amino]-2-fluorophenyl]piperidin-1-yl]acetyl]piperazin-1-yl]pyrimidin-5-yl]-5-(methoxymethyl)-4-oxoquinazoline] | 0.0314 µM | 13.7%
CCN(C)S(=O)(=O)Nc1ccc(F)c(Oc2ccc3ncn(-c4cnc(N5CCN(C(=O)CN6CCC(c7ccc(N[C@H]8CCC(=O)NC8=O)cc7F)CC6)CC5)nc4)c(=O)c3c2O)c1C#N [Example 136, 6-[2-cyano-3-[[ethyl(methyl)sulfamoyl]amino]-6-fluorophenoxy]-3-[2-[4-[2-[4-[4-[[(3S)-2,6-dioxopiperidin-3-yl]amino]-2-fluorophenyl]piperidin-1-yl]acetyl]piperazin-1-yl]pyrimidin-5-yl]-5-hydroxy-4-oxoquinazoline] | 0.0163 µM | 16.9%
CCN(C)S(=O)(=O)Nc1ccc(F)c(Oc2ccc3ncn(-c4cnc(N5CCN(C(=O)CN6CCC(c7ccc(N[C@@H]8CCC(=O)NC8=O)cc7F)CC6)CC5)nc4)c(=O)c3c2O)c1C#N [Example 137, 6-[2-cyano-3-[[ethyl(methyl)sulfamoyl]amino]-6-fluorophenoxy]-3-[2-[4-[2-[4-[4-[[(3R)-2,6-dioxopiperidin-3-yl]amino]-2-fluorophenyl]piperidin-1-yl]acetyl]piperazin-1-yl]pyrimidin-5-yl]-5-hydroxy-4-oxoquinazoline] | 0.0342 µM | 25.1%
O=C1CC[C@H](Nc2ccc(C3CCN(CC(=O)N4CCN(c5ncc(-n6cnc7ccc(Oc8c(F)ccc(NS(=O)(=O)C9CCCC9)c8F)cc7c6=O)cn5)CC4)CC3)c(F)c2)C(=O)N1 [Example 138, N-[3-[3-[2-[4-[2-[4-[4-[[(3S)-2,6-dioxopiperidin-3-yl]amino]-2-fluorophenyl]piperidin-1-yl]acetyl]piperazin-1-yl]pyrimidin-5-yl]-4-oxoquinazolin-6-yl]oxy-2,4-difluorophenyl]cyclopentanesulfonamide] | 0.0173 µM | 10.7%
CCN(C)S(=O)(=O)Nc1ccc(F)c(Oc2ccc3ncn(-c4cnc(N5CCN(C(=O)CN6CCC(c7ccc(N[C@@H]8CCC(=O)NC8=O)cc7F)CC6)CC5)nc4)c(=O)c3c2)c1F [Example 139, 3-[2-[4-[2-[4-[4-[[(3R)-2,6-dioxopiperidin-3-yl]amino]-2-fluorophenyl]piperidin-1-yl]acetyl]piperazin-1-yl]pyrimidin-5-yl]-6-[3-[[ethyl(methyl)sulfamoyl]amino]-2,6-difluorophenoxy]-4-oxoquinazoline] | 0.0412 µM | 13.2%
CCN(C)S(=O)(=O)Nc1ccc(F)c(Oc2ccc3ncn(-c4cnc(N5CCN(C(=O)CN6CCC(c7ccc(N[C@H]8CCC(=O)NC8=O)cc7F)CC6)CC5)nc4)c(=O)c3c2)c1F [Example 140, 3-[2-[4-[2-[4-[4-[[(3S)-2,6-dioxopiperidin-3-yl]amino]-2-fluorophenyl]piperidin-1-yl]acetyl]piperazin-1-yl]pyrimidin-5-yl]-6-[3-[[ethyl(methyl)sulfamoyl]amino]-2,6-difluorophenoxy]-4-oxoquinazoline] | 0.0278 µM | 12.3%
